Experimental findings from patent US6346603B1, “Crystal of depsipeptide derivative and process for producing the same” (Fujisawa Pharmaceutical Co., Ltd., priority 1997, dated 2002) are described below.

Holding throughout (assay type): physicochemical
A short description of data set [1]: Filtration properties during crystallization, observed with the naked eye. The arrangement: key: ⊚: very great filtration properties; ◯: good filtration properties; Δ: poor filtration properties; X: very poor filtration properties. Particulars: observation with the naked eye. As for the experimental part:
(§1) The crystals (I), (II) and (III) of the depsipeptide derivative (IV), thus recovered in the aforementioned manners, were examined about the filtration properties during crystallization, the specific volume and water content, by using the prior art crystal (V) for comparison.
The filtration properties during crystallization were evaluated on the following standards under observation with the naked eye.
⊚: very great filtration properties
◯: good filtration properties
Δ: poor filtration properties
X: very poor filtration properties

Data set [2] is described as follows: Water content after standing at ambient temperature to constant weight. Particulars: left to stand at ambient temperature until weight reached constant value. As for the experimental part: as §1
As to the water content, additionally, each crystal was left to stand at ambient temperature until its weight reached constant value, wherein an amount of water containing in the crystal was measured in %.

Data set [3] in a line: Fluidity (adhesion properties) of the crystal. The note with it: not shown in Table 6; adhesion to machines during production.

With `CC(C)CC1C(=O)OC(Cc2ccc(N3CCOCC3)cc2)C(=O)N(C)C(CC(C)C)C(=O)OC(C)C(=O)CCCCN1C` (stereo not shown) [Crystal (I)], the “Filtration property during crystallization” value in data set [1] is given as “×”. In data set [2], this compound gave a Water content of 3.16%.
For `CC(C)CC1C(=O)OC(Cc2ccc(N3CCOCC3)cc2)C(=O)N(C)C(CC(C)C)C(=O)OC(C)C(=O)CCCCN1C` (stereo not shown) [Crystal (II)], the “Filtration property during crystallization” value in data set [1] is “⊚”. The compound further registered a Water content in data set [2] of 0.98%. For the same compound, the “Fluidity (adhesion properties)” value in data set [3] was “great fluidity”.
Regarding `CC(C)CC1C(=O)OC(Cc2ccc(N3CCOCC3)cc2)C(=O)N(C)C(CC(C)C)C(=O)OC(C)C(=O)CCCCN1C` (stereo not shown) [Crystal (III)], the “Filtration property during crystallization” value in data set [1] is given as “◯”. Also, the Water content in data set [2] turned out to be 0.20%.
As for `CC(C)CC1C(=O)OC(Cc2ccc(N3CCOCC3)cc2)C(=O)N(C)C(CC(C)C)C(=O)OC(C)C(=O)CCCCN1C` (stereo not shown) [Prior art Crystal (V), reference compound], the “Filtration property during crystallization” value in data set [1] was “×”. This compound displayed a Water content in data set [2] of 2.45%. Also, in data set [3], the “Fluidity (adhesion properties)” value is reported as “poor fluidity”.
